Read-outs that look alike come from different tables or passages of the source.
What was measured:
HeLa/TK^− = experiment: Cytostatic assay, HeLa/TK^− cells; format: cell-based; details: Table 6; read-out: IC50 HeLa/TK^−
Text: (§1) The cell lines employed were L1210/0 (a leukemia cell line), FM3A/0 (a breast cancer cell line), Cem/0 (an acute lymphoblastic leukemia cell line) and HeLa (a cervical cell line).

Cem/0 = experiment: Cytostatic assay, CEM/0 cells; format: cell-based, human; details: Table 6; read-out: IC50 Cem/0
Text: as §1

L1210/0 = experiment: Cytostatic assay, L1210/0 cells; format: cell-based, murine; details: read-out: IC50 L1210/0
Text: as §1

Cem/TK^− = experiment: Cytostatic assay, thymidine kinase-deficient CEM/TK^− cells; format: cell-based, human; details: Table 6; read-out: IC50 Cem/TK^−
L1210/TK^− = experiment: Cytostatic assay, thymidine kinase-deficient L1210/TK^− cells; format: cell-based, murine; details: Table 6; read-out: IC50 L1210/TK^−
HeLa = experiment: Cytostatic assay, HeLa cells; format: cell-based; details: Table 6; read-out: IC50 HeLa
Text: as §1

L1210.Hyor = experiment: Cytostatic assay, Mycoplasma hyorhinis-infected L1210 cells; details: Table 7; for IC50: read-out: IC50 L1210.Hyor
Text: Murine leukaemia L1210/0 and human T-lymphocyte CEM/0 cells were obtained from the American Type Culture Collection (ATCC) (Rockville, Md.). Human glioblastoma U87 cells were kindly provided by Dr. E. Menue (Institut Pasteur, Paris, France). […] S. Eriksson (currently at Uppsala University, Uppsala, Sweden) and Prof A. Karlsson (Karolinska Institute, Stockholm, Sweden). […] All cells were maintained in Dulbecco's modified Eagle's medium (DMEM) (Invitrogen, Carlsbad, Calif.) with 10% foetal bovine serum (FBS) (Biochrom AG, Berlin, Germany), 10 mM Hepes and 1 mM Sodium Pyruvate (Invitrogen). Cells were grown at 37° C. in a humidified incubator with a gas phase of 5% CO2.
Monolayer cells (U87 and U87.Hyor) were seeded in 48-well microtiter plates (Nunc™, Roskilde, Denmark) at 10,000 cells/well. After 24 hours, an equal volume of fresh medium containing the test compounds was added. On day 5, cells were trypsinized and counted in a Coulter counter (Analis, Suarlée, Belgium). Suspension cells (L1210/0, L1210/TK^−, L1210.Hyor, CEM/0, CEM/TK^−) were seeded in 96-well microtiter plates (Nunc™) at 60,000 cells/well in the presence of a given amount of the test compounds. The cells were allowed to proliferate for 48 h (L1210) or 72 hours (CEM) and were then counted in a Coulter counter.
Samples were also assayed for their % retention of activity in mycoplasma infected cells.
The L1210/0 cell cultures were infected with the mycoplasma species M. hyorhinis (cells designated: L1210.Hyor).

Work on `CCCCCOC(=O)C(C)(C)NP(=O)(OCC1OC(n2cc(F)c(=O)[nH]c2=O)CC1O)Oc1cccc2ccccc12` (stereo not drawn) [Nap Pnt DMG] yielded an IC50 (HeLa/TK^−) of 2300 ± 100 nM, an IC50 (Cem/0) of 140 nM and an IC50 (L1210/0; Table 6) of 37 ± 10 nM. The IC50 (L1210/0; Table 7) was 45 ± 2.1 nM, the IC50 (Cem/TK^−) was 5400 ± 1100 nM and the IC50 (L1210/TK^−) was 300 ± 130 nM. For the same molecule, the IC50 (HeLa) was 120 ± 30 nM, the “IC50(L1210.Hyor)/IC50(L1210/0)” value (L1210.Hyor) was 0.42 and the IC50 (L1210.Hyor) was 19 ± 2.8 nM.

With `CCCCCOC(=O)C(CC(C)C)NP(=O)(OCC1OC(n2cc(F)c(=O)[nH]c2=O)CC1O)Oc1cccc2ccccc12` (stereo not drawn) [Nap Pnt Leu] the IC50 (HeLa/TK^−) was 7500 ± 400 nM, the IC50 (Cem/0) was 71 ± 8 nM and the IC50 (L1210/0; Table 6) was 17 ± 1 nM. It also gave an IC50 (L1210/0; Table 7) of 31 ± 2 nM, an IC50 (Cem/TK^−) of 15000 ± 4000 nM and an IC50 (L1210/TK^−) of 1200 ± 400 nM. The IC50 (HeLa) was 39 ± 14 nM, the “IC50(L1210.Hyor)/IC50(L1210/0)” value (L1210.Hyor) was 1.13 and the IC50 (L1210.Hyor) was 35 ± 10 nM.

`CCCOC(=O)C(C)NP(=O)(OCC1OC(n2cc(F)c(=O)[nH]c2=O)CC1O)Oc1cccc2ccccc12` (stereo not drawn) [Nap Pr Ala] showed an IC50 (HeLa/TK^−) of 2500 ± 100 nM, an IC50 (Cem/0) of 140 ± 10 nM and an IC50 (L1210/0; Table 6) of 21 ± 12 nM. It also gave an IC50 (L1210/0; Table 7) of 30 ± 0.35 nM, an IC50 (Cem/TK^−) of 1100 ± 200 nM and an IC50 (L1210/TK^−) of 160 ± 70 nM. The IC50 (HeLa) was 110 ± 30 nM, the “IC50(L1210.Hyor)/IC50(L1210/0)” value (L1210.Hyor) was 1.2 and the IC50 (L1210.Hyor) was 36 ± 6.4 nM.

In the case of `CC(C)CC(NP(=O)(OCC1OC(n2cc(F)c(=O)[nH]c2=O)CC1O)Oc1ccccc1)C(=O)OCc1ccccc1` (stereo not drawn) [Ph Bn Leu], the IC50 (HeLa/TK^−) is reported as 5600 ± 300 nM, the IC50 (Cem/0) is reported as 240 ± 40 nM and the IC50 (L1210/0; Table 6) is reported as 44 ± 25 nM. It also gave an IC50 (L1210/0; Table 7) of 54 ± 2.1 nM, an IC50 (Cem/TK^−) of 16000 ± 1000 nM and an IC50 (L1210/TK^−) of 2000 ± 300 nM. For the same molecule, the IC50 (HeLa) was 67 ± 42 nM, the “IC50(L1210.Hyor)/IC50(L1210/0)” value (L1210.Hyor) was 3.2 and the IC50 (L1210.Hyor) was 170 ± 47 nM.

`O=C(OCc1ccccc1)C(Cc1ccccc1)NP(=O)(OCC1OC(n2cc(F)c(=O)[nH]c2=O)CC1O)Oc1ccccc1` (stereo not drawn) [Ph Bn Phe] showed an IC50 (HeLa/TK^−) of 12000 ± 2000 nM, an IC50 (Cem/0) of 250 ± 20 nM and an IC50 (L1210/0; Table 6) of 36 ± 10 nM. For the same molecule, the IC50 (L1210/0; Table 7) was 16 ± 1.4 nM, the IC50 (Cem/TK^−) was 11000 ± 3000 nM and the IC50 (L1210/TK^−) was 39000 ± 4000 nM. For the same molecule, the IC50 (HeLa) was 14 ± 7 nM, the “IC50(L1210.Hyor)/IC50(L1210/0)” value (L1210.Hyor) was 35 and the IC50 (L1210.Hyor) was 560 ± 23 nM.

Molecule `CCOC(=O)C(NP(=O)(OCC1OC(n2cc(F)c(=O)[nH]c2=O)CC1O)Oc1ccccc1)C(C)C` (stereo not drawn) [Ph Et Val] has an IC50 (HeLa/TK^−) of 27000 ± 7000 nM, an IC50 (Cem/0) of 1000 ± 100 nM and an IC50 (L1210/0; Table 6) of 160 ± 50 nM. For the same molecule, the IC50 (L1210/0; Table 7) was 200 ± 33 nM, the IC50 (Cem/TK^−) was > 250000 nM and the IC50 (L1210/TK^−) was 42000 ± 2000 nM. The IC50 (HeLa) was 1200 ± 300 nM, the “IC50(L1210.Hyor)/IC50(L1210/0)” value (L1210.Hyor) was 22 and the IC50 (L1210.Hyor) was 4400 ± 1100 nM.

For `CCCCCOC(=O)C(CCSC)NP(=O)(OCC1OC(n2cc(F)c(=O)[nH]c2=O)CC1O)Oc1ccccc1` (stereo not drawn) [Ph Pnt Met], the IC50 (HeLa/TK^−) was 7100 ± 1200 nM, the IC50 (Cem/0) was 350 ± 130 nM and the IC50 (L1210/0; Table 6) was 110 ± 60 nM. It also gave an IC50 (L1210/0; Table 7) of 130 ± 7.8 nM, an IC50 (Cem/TK^−) of 13000 ± 1000 nM and an IC50 (L1210/TK^−) of 2200 ± 500 nM. The IC50 (HeLa) was 150 nM, the “IC50(L1210.Hyor)/IC50(L1210/0)” value (L1210.Hyor) was 3.2 and the IC50 (L1210.Hyor) was 410 ± 210 nM.
